Literature values as cited in patent US20100048397A1, “GABA/Pesticidal Combinations” (priority 2008, published 2010).

Assays:
[1] = tested on: greenhouse-grown tomato plants; details: in vivo
[2] = tested on: greenhouse-grown cucumber plants; details: in vivo
leek seed = details: seed treatment, compared with seed treated with fipronil

SMILES: O=[N+]([O-])NC1=NCCN1Cc1ccc(Cl)nc1 [imidacloprid, (E)-1-(6-chloro-3-pyridylmethyl)-N-nitroimidazolidin-2-ylideneamine]
- phytotoxicity at lowest rate [1]: caused phytotoxicity symptoms
- phytotoxicity at lowest rate [2]: caused phytotoxicity symptoms
- phytotoxicity, germination rate (leek seed): delayed germination rates
